Measurements from patent US10292949B2, “Pharmaceutical composition comprising rimeporide for treating diseases associated with insulin resistance and β-cell dysfunction” (Merck Patent GmbH, priority 2008, dated 2019).

Tests used:
Format in all cases: in vivo, rat
[1] = Pharmacological Study Report II: body weight and food intake; settings: for Average food consumption, Week 1 / Average food consumption, Week 2 / Average food consumption, Week 3 / Average food consumption, Week 4: fa/fa rats, average +/- SD
Description: (§1) Thirty-six obese Zucker fa/fa and six lean Zucker fa/? male rats obtained from Charles River, were housed under normal vivarium conditions on a 12 hour light/dark cycle. The rats were kept two to a cage with food and water available ad lib, except during the weekly, 4 hour fasts. Water continued to be available during these fasts.
(§2) Compound A corresponds to Cariporide. Compound B corresponds to 2-Methyl-4,5-di-(methylsulfonyl)-benzoyl-guanidine hydrochloride hydrate. Compounds A and B were supplied in powder form by Merck Serono. Drugs were incorporated into a pelleted diet (LabDiet, 5001) by Research Diets, Inc (New Brunswick, N.J.) at concentrations of 0.44 g/kg or 0.88 g/kg of diet to yield approximate doses of 40 or 80 mg/kg. The concentration was calculated based on the assumption that a 300 g rat would eat about 30 g/d of chow. The same chow, but without drug, was fed to rats of both the lean and fa/fa control group animals.
One week prior to the start of the study, all rats were weighed. After a 4 hour fast, a blood sample was obtained for the determination of blood glucose, insulin, and glycosylated hemoglobin levels (HbA1c). Animals were then sorted on the basis of these parameters into the groups listed below. Rats were eight weeks of age at the onset of treatment.
(§3) • 1. ZF rats (fa/fa) (n=6) chow without drug • 2. ZF rats (fa/fa) (n=6) compound A (40 mg/kg/day) • 3. ZF rats (fa/fa) (n=6) compound A (80 mg/kg/day) • 4. ZF rats (fa/fa) (n=6) compound B (40 mg/kg/day) • 5. ZF rats (fa/fa) (n=6) compound B (80 mg/kg/day) • 6. lean Zucker rats (fa/?) (n=6) chow without drug Dosing Regime
Treatment appropriate chow was continuously available for 4 weeks except during scheduled 4 h fasts conducted once per week.
individual body weights were determined once per week. Average food intake per cage was also determined once per week and the individual rat consumption was calculated by dividing the cage average by 2 (rats housed 2/cage).

[2] = test system: obese Zucker fa/fa rats; assay: Pharmacological Study Report II: 2H-glucose disposal test (2H-GDT) on Days 0, 14 and 28
Description: as §1, §2, §3
Insulin sensitivity (SI) and pancreatic compensation (PC) were measured by conducting ^2H-Glucose disposal test on Days 0, 14 and 28.
Time −4 h: Before the fast was begun on the morning of the GDT, a blood sample was taken to determine the random glucose level (see above). An additional blood sample was collected to determine the baseline ^2H2O and ^18O enrichments. The rats were weighed and the 4 h fast was begun. Water was available during the fast.
Time −3 h: One 1 hour after the start of the fast, 1.75 mg/g body weight of 10% H2^18O was administered by oral gavage (^2H2O-free H2O^18 water; 10% ^18O atom from Spectra; Cat. No 51350).
Time 0: 4 hours after the start of the fast, the blood glucose and insulin levels were determined. Rats received 4 ml/kg of a 50% glucose solution (comprised of 25% [6,6-^2H2] glucose and 25% D-glucose) by oral gavage.
At times 15, 30, 60 and 90 min post glucose challenge, blood glucose concentrations were again determined by a glucometer reading from tail vein blood. Additional blood samples were collected for insulin determinations. At 60 and 90 min post glucose challenge, whole blood was collected to determine the ^2H2O and H2^18O enrichments. All blood samples were centrifuged and the plasma was stored at −20° C. until assayed. The deuterium and oxygen-18 isotope enrichments of body water were determined by IRIS analysis of the water distillate of the plasma samples.
^2H2O enrichment was converted to mmol by multiplying enrichment (^2H2O APE) by the total body water pool size and dividing by 20 (molecular weight of ^2H2O). Total ^2H2O produced was calculated as the percent of the [6,6-^2H2] glucose load administered. Plasma insulin and glucose areas under the curve (AUC 60 min) were calculated using the trapezoidal method (GraphPad Prism).
Two parameters were calculated from the ^2H-GDT: • 1. Insulin sensitivity index (SI)=^2H2O production (% load)/(glucose AUC×insulin AUC). • 2. Pancreatic compensation (PC)=the absolute ^2H2O production as a percent of total [6,6-^2H2] glucose load (% load)/the integrated glucose response (glucose AUC; to correct for insulin-independent utilization). Statistics
Overall results of glucose and insulin measures were analyzed by a 2 way repeated measures ANOVA using drug and time (repeated) as factors. The primary analysis was followed by Bonferroni posttests to compare all groups. Data are considered significant at p<0.05. AUC 60 min values for glucose and insulin were analyzed by 1 way ANOVA followed by Tukey's comparison of all groups.

[3] = test system: Obese, insulin resistant ZF (fa/fa) rats; assay: Pharmacological Study Report I: random and fasting blood glucose and plasma insulin levels; settings: Compound A 150 mg/kg gavage twice daily, Compound B 40 mg/kg/day in chow
Description: Obese, insulin resistant ZF (fa/fa) rats, which are treated from the age of 8-12 weeks, were used as IR model. Rats were housed with a 12-h light/dark cycle and free access to food and water unless otherwise noted. Studies were approved by the Institutional Animal Care and Use Committee. There were a total of 18 animals in the study (8 week-old males, provided by Charles River). Animals were randomized into 3 groups (vehicle group, Compound A group, Compound B group, n=6 per group) based on random glucose level at the beginning of the study: • Group 1: ZF rats (fa/fa) (n=6), compound A (150 mg/kg via gavage) • Group 2: ZF rats (fa/fa) (n=6), compound B (40 mg/kg/day as admixture to the chow) • Group 3: ZF rats (fa/fa) (n=6), vehicle treatment (control chow, vehicle gavage)
Group 1 and 3 animals were treated with compound A or vehicle (water) for 4 weeks (from age 8-12 weeks) via oral gavage, twice daily. Chow containing compound B was fed to Group 2 ad lib. Group 1 and Group 3 were fed with chow without compound B ad lib.
Random morning blood was withdrawn from ad libitium fed rats by a small cut in the tip of the tail. Blood was collected in heparinized tubes. Blood glucose concentrations were measured as per study design using a One-Touch glucometer (Lifescan Inc, Milptias, Calif.). Blood samples were placed on ice and centrifuged, and plasma stored at −20° C. until insulin was assayed. Rat plasma insulin concentration was measured with rat-specific ELISA kit (Crystal Chem Inc, Downers Grove, Ill.).
Random morning blood glucose levels were measured weekly between 9-11 a.m.
At the end of the study, rats were fasted for 4 hours and glucose and insulin level were measured.

[4] = 40 and 80 mg/kg (neither dose), 4 weeks

CC(C)c1ccc(C(=O)NC(=N)N)cc1S(C)(=O)=O [Compound A, Cariporide]
Average weekly food intake vs chow fed fa/fa controls ([1]; Zucker fa/fa rats, 4 weeks, 40 or 80 mg/kg in chow): did not differ significantly
Average food consumption, Week 1 ([1]; 40 mg/kg in chow): 32.2 +/− 3.5 grams
Average food consumption, Week 2 ([1]; 40 mg/kg in chow): 33.1 +/− 2.6 grams
Average food consumption, Week 3 ([1]; 40 mg/kg in chow): 33.9 +/− 2.4 grams
Average food consumption, Week 4 ([1]; 40 mg/kg in chow): 34.9 +/− 2.7 grams
Average food consumption, Week 1 ([1]; 80 mg/kg in chow): 34.3 +/− 2.5 grams
Average food consumption, Week 2 ([1]; 80 mg/kg in chow): 32.8 +/− 4.3 grams
Average food consumption, Week 3 ([1]; 80 mg/kg in chow): 32.3 +/− 4.5 grams
Average food consumption, Week 4 ([1]; 80 mg/kg in chow): 30.8 +/− 5.6 grams
Glucose level at the 90 min time point of the 2H-GDT vs fa/fa vehicle ([2]; 40 mg/kg, 4 weeks of treatment): elevated above that of the fa/fa vehicle treated rats
Blood glucose and insulin concentrations in response to glucose challenge (2H-GDT) ([2]; 4 weeks after start of treatment, 40 and 80 mg/kg): continued to have elevated
Glucose tolerance ([2]; 4 weeks of treatment): did not improve
Glucose levels (either fasting or in response to challenge) [2, 4]: Neither dose of Compound A significantly improved
Insulin sensitivity (SI) [2, 4]: Neither dose of Compound A significantly improved
Pancreatic compensation (PC) [2, 4]: Neither dose of Compound A significantly improved
Glucose or insulin response to glucose challenge (2H-GDT) ([2]; after 2 weeks of treatment, 40 and 80 mg/kg): did not affect
Random morning blood glucose level vs vehicle group ([3]; 4 weeks): trended towards lower glucose level
Fasting glucose levels, post vs pre treatment ([3]; 4 h fast, after 4 weeks): trended towards lower values post treatment
Fasting insulin levels compared to pre-treatment levels ([3]; 4 h fast, after 4 weeks): significantly lower
